Assay results taken from patent US20240336617A1, “Substituted Bimane Compounds and Methods of Use Thereof” (THE TRUSTEES OF THE UNIVERSITY OF PENNSYLVANIA, priority 2023, published 2024).

Legend:
Format in all cases: binding
[1] = biological target: T1, amplified αS fibrils (AFs) from PDD patient brain extracts (Homo sapiens, UniProt P37840); assay: Fluorescence measurements with PDD patient cases (lysate, AFs, PFFs); details: lysate or AFs and probe 1 μM
T1 construct: made in house; host or cells: recombinant αS monomer, seeded with sarkosyl-insoluble extract of human frontal cortex (AD or PDD)
Experimental: All procedures were performed in accordance with local institutional review board guidelines. Written informed consent for autopsy and analysis of tissue sample data was obtained either from patients themselves or their next of kin. Frozen postmortem human frontal cortex brain tissues from three patients diagnosed with Alzheimer's disease (AD) and three patients diagnosed with Parkinson's disease with dementia (PDD) were selected for sequential extraction of αS aggregates based on a high burden of αS pathology determined by immunohistochemical staining. In brief, 5-10 g of frontal cortical gray matter were homogenized in five volumes (W/V) of high-salt (HS) buffer (50 mM Tris-HCl pH 7.4, 750 mM NaCl, 10 mM NaF, 5 mM EDTA) with protease and protein phosphatase inhibitors, incubated on ice for 20 min and centrifuged at 100,000×g for 30 min. The pellets were then re-extracted with HS buffer, followed by sequential extractions with five volumes of 1% Triton X-100-containing HS buffer and 1% Triton X-100-containing HS buffer with 30% sucrose. The pellets were then re-suspended and homogenized in 1% sarkosyl-containing HS buffer, rotated at room temperature for 2 h or at 4° C. overnight and centrifuged at 100,000×g for 30 min. […] These final sarkosyl-insoluble fractions are referred to as “brain extracts.: The amount of αS in the brain extracts was determined by sandwich ELISA using Syn9027, a mono-clonal antibody (Mab) to αS, and the protein concentrations were examined by bicinchoninic acid (BCA) assay. […]
Brain-derived αS aggregates in extract samples from three AD and three PDD cases (FIG. 38A) were used as seeds for templated aggregation of recombinant αS monomer. […] After seven days of incubation, amplification progress was determined by removing an aliquot and diluting tenfold in DPBS to a final αS concentration of 3.5 μM. […] Equal volumes of supernatant and pellet fractions were analyzed on SDS-PAGE gels and Western blot, with amplified aggregates migrating to the pellet fraction (FIG. 38B). […]

[2] = biological target: bovine serum albumin (BSA) (Bos taurus, UniProt P02769); assay: Fluorescence in the presence of BSA
[3] = biological target: T2, tau fibrils (Homo sapiens, UniProt P10636); assay: Fluorescence and excitation spectra with tau fibrils
T2 construct: made in house; host or cells: E. coli BL21
Experimental: (§1) Fluorescence measurements were performed using a PTI QuantaMaster™ 40 fluorescence spectrometer. Fluorescence spectra of 5 μM probes (concentrated stock solution prepared as 10 mM in DMSO) (7j, 7k, 7l, 7m, and ThT) in PBS buffer were measured in the absence and presence of 25 μM tau fibrils (stock solution 32 μM tau fibrils in PBS buffer).
as §1, with “Excitation spectral measurements” for “Fluorescence measurements”, “spectrometer. Excitation” for “spectrometer. Fluorescence”
as §1, with “QuantaMaster” for “QuantaMaster™”, “(5j, 5k,” for “(7j, 7k, 7l, 7m,”
Excitation spectral measurements were performed using a PTI QuantaMaster™ 40 fluorescence spectrometer. Excitation spectra of 5 μM probes (concentrated stock solution prepared as 10 mM in DMSO) (5j, 5k, and ThT) in PBS buffer were measured in the absence and presence of 25 μM tau fibrils (stock solution 32 μM tau fibrils in PBS buffer). […]

Sequence of bovine serum albumin (BSA) (P02769 25-607): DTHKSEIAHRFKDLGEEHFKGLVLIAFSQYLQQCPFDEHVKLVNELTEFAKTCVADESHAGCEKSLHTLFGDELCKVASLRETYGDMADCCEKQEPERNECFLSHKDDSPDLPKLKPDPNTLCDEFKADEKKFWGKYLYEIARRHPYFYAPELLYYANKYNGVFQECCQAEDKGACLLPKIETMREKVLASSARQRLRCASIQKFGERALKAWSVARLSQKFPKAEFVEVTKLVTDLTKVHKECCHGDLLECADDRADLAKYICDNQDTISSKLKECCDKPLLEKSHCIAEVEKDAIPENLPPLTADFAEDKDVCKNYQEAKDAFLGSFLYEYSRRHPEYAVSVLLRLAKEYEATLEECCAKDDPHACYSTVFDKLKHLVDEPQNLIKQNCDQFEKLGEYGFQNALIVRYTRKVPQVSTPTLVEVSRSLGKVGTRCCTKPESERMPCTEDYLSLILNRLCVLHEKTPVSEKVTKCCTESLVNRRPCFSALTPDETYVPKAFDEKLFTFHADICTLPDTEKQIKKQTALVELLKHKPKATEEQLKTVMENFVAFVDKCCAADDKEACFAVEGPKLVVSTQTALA
T2 sequence (P10636 1-412 isoform P10636-7): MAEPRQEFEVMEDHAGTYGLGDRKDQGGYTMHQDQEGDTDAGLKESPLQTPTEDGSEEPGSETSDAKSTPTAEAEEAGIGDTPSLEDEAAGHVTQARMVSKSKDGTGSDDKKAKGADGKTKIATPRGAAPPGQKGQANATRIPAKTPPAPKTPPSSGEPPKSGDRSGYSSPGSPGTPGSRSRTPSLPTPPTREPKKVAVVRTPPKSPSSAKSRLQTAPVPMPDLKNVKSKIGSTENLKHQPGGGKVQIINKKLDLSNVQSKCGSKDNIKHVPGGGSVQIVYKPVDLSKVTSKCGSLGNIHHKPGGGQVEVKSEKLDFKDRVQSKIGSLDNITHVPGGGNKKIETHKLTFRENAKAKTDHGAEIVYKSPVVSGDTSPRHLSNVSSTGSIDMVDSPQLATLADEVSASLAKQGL

| fluorescence turn on with BSA [2] | λmax (λem) with BSA ([2]; 10 μM probe, BSA 50 μM, excitation 418 nm) [nm] | emission maximum bound to tau [3] [nm] | SMILES | fluorescence detection of PDD amplified fibrils (AFs) [1] |
| --- | --- | --- | --- | --- |
| – | – | – | Cc1c(C)n2c(/C=C/C=C/c3ccc(N(C)C)cc3)c(C)c(=O)n2c1=O [Compound 7m, 3-((1E,3E)-4-(4-(dimethylamino)phenyl)buta-1,3-dien-1-yl)-2,5,6-trimethyl-1H,7H-pyrazolo[1,2-a]pyrazole-1,7-dione] | selective increase in fluorescence for PDD AFs compared to AD AFs |
| turn-on was possible | 555 | 596 | Cc1c(C)n2c(/C=C/c3ccc(N(C)C)cc3)c(C)c(=O)n2c1=O [Compound 7l, (E)-3-(4-(dimethylamino)styryl)-2,5,6-trimethyl-1H,7H-pyrazolo[1,2-a]pyrazole-1,7-dione] | higher sensitivity to PDD derived AFs |
